Where two headings read alike, the source gives them in different places.
Experiments:
[1] = Acute toxicity in 13762F tumor-bearing Fischer rats
[2] = tested on: rat mammary tumor cell line 13762F; test: Plating efficiency assay, 13762F cells; assay type: cell-based; settings: 144 h, read-out: IC50 (50% inhibition of colony formation), 6 days of continuous exposure, approximate
[3] = in vivo; settings: female, C3Hf/Kam, mouse, iv
[4] = tested on: ovarian OCa-l carcinoma
[5] = tested on: SKOV3ipl human ovarian cancer cell line; test: Human ovarian cancer i.p. in nude mice
[6] = 47 mg eq./kg + 14 Gy 24 h after PG-TXL
[7] = 80 mg eq./kg + 14 Gy 24 h after PG-TXL
[8] = 120 mg eq/kg + 14 Gy 24 h after PG-TXL
[9] = 120 mg eq/kg + 14 Gy 24 h prior to PG-TXL

CC(=O)O[C@H]1C(=O)[C@@]2(C)[C@H]([C@H](OC(=O)c3ccccc3)[C@]3(O)C[C@H](OC(=O)[C@H](O)[C@@H](NC(=O)c4ccccc4)c4ccccc4)C(C)=C1C3(C)C)[C@]1(OC(C)=O)CO[C@@H]1C[C@@H]2O [Paclitaxel, paclitaxel]
# of Toxic Death ([1]; 20 mg/kg single i.v.): 0/5
Body Weight Loss in % ([1]; 20 mg/kg single i.v.): 17.0%
Time at Nadir ([1]; 20 mg/kg single i.v.): 5 days
# of Toxic Death ([1]; 40 mg/kg single i.v.): 0/3
Body Weight Loss in % ([1]; 40 mg/kg single i.v.): 17.9%
Time at Nadir ([1]; 40 mg/kg single i.v.): 6 days
Time of Full Recovery ([1]; 40 mg/kg single i.v.): 16 days
# of Toxic Death ([1]; 60 mg/kg single i.v.): 1/4
Body Weight Loss in % ([1]; 60 mg/kg single i.v.): 16.7%
Time at Nadir ([1]; 60 mg/kg single i.v.): 6 days
Time of Full Recovery ([1]; 60 mg/kg single i.v.): 15 days
MTD at 2 wk ([1]; female, Fischer 344, rat, in vivo): < 20 mg/kg
IC50 [2]: ~2 nM
MTD at 2 wk [3]: 80 mg/kg

Poly-Glutamic Acid-Paclitaxel [PG-TXL]
Body Weight Loss in % ([1]; 40 mg/kg single i.v.): 11.1%
Time at Nadir ([1]; 40 mg/kg single i.v.): 6 days
Time of Full Recovery ([1]; 40 mg/kg single i.v.): 11 days
Body Weight Loss in % ([1]; 60 mg/kg single i.v.): 15.7%
Time at Nadir ([1]; 60 mg/kg single i.v.): 7 days
Time of Full Recovery ([1]; 60 mg/kg single i.v.): 14 days
Absolute growth delay [4, 6]: 18.2 days
Days for tumor to grow from 8-14 mm (means ± SD) [4, 6]: 35.3 ± 4.7 days
Normalized growth delay (means ± SD) [4, 6]: 15.5 ± 4.7 days
Absolute growth delay ([4]; 47 mg eq./kg, no radiation): 2.7 days
Days for tumor to grow from 8-14 mm (means ± SD) ([4]; 47 mg eq./kg, no radiation): 19.8 ± 0.98 days
Absolute growth delay [4, 7]: 45.6 days
Days for tumor to grow from 8-14 mm (means ± SD) [4, 7]: 62 ± 4.6 days
Normalized growth delay (means ± SD) [4, 7]: 37.5 ± 4.6 days
Absolute growth delay ([4]; 80 mg eq./kg, no radiation): 8.1 days
Days for tumor to grow from 8-14 mm (means ± SD) ([4]; 80 mg eq./kg, no radiation): 25.3 ± 3.9 days
Absolute growth delay [4, 8]: 98.4 days
Normalized growth delay (means ± SD) [4, 8]: 85.9 ± 3.0 days
Days for tumor to grow from 8-14 mm (means ± SD) ([4]; 120 mg eq/kg + 14 Gy 24 h after PG-TXL, regrown tumors only): 115 ± 3 days
Absolute growth delay [4, 9]: 100.5 days
Normalized growth delay (means ± SD) [4, 9]: 88 ± 1.2 days
Days for tumor to grow from 8-14 mm (means ± SD) ([4]; 120 mg eq/kg + 14 Gy 24 h prior to PG-TXL, regrown tumors only): 117 ± 1.2 days
Absolute growth delay ([4]; 120 mg eq/kg, no radiation): 12.5 days
Days for tumor to grow from 8-14 mm (means ± SD) ([4]; 120 mg eq/kg, no radiation): 29.7 ± 3.2 days
Ascites (incidence/mice with tumor) ([5]; 120 mg/kg, three injections): 3/7
Mean vol of ascites (s.d.) ([5]; 120 mg/kg, three injections): 2.7 ± 1.4 mL
Tumor take (incidence of tumor/mice injected) ([5]; 120 mg/kg, three injections): 7/8
mice killed by a single injection ([5]; 160 mg/kg i.v., nude mice): 5 of the 10
Ascites (incidence/mice with tumor) ([5]; 160 mg/kg, single dose): 0/3

— patent US6730699B2, “Water soluble paclitaxel derivatives” (priority 2001, dated 2004)
